Numbers after ± are expanded uncertainties.
Conditions: for molar entropy: 101.33 kPa, Vacuum adiabatic calorimetry; for vapor or sublimation pressure: Ebulliometric method (Recirculating still)

In the case of CCCC(=O)OC [methyl butanoate], the molar entropy (5 K, Crystal) is reported as 0.119 ± 0.017 J/K/mol, the molar entropy (10 K, Crystal) is reported as 0.949 ± 0.027 J/K/mol and the molar entropy (15 K, Crystal) is reported as 2.987 ± 0.046 J/K/mol. The molar entropy (20 K, Crystal) was 6.126 ± 0.068 J/K/mol, the molar entropy (25 K, Crystal) was 10.07 ± 0.085 J/K/mol and the molar entropy (30 K, Crystal) was 14.55 ± 0.1 J/K/mol. For the same compound, the molar entropy (35 K, Crystal) was 19.38 ± 0.12 J/K/mol, the molar entropy (40 K, Crystal) was 24.39 ± 0.14 J/K/mol and the molar entropy (45 K, Crystal) was 29.43 ± 0.15 J/K/mol. For the same compound, the molar entropy (50 K, Crystal) was 34.51 ± 0.17 J/K/mol, the molar entropy (55 K, Crystal) was 39.59 ± 0.18 J/K/mol and the molar entropy (60 K, Crystal) was 44.66 ± 0.2 J/K/mol. It also gave a molar entropy (65 K, Crystal) of 49.71 ± 0.21 J/K/mol, a molar entropy (70 K, Crystal) of 54.67 ± 0.23 J/K/mol and a molar entropy (75 K, Crystal) of 59.5 ± 0.24 J/K/mol. For the same compound, the molar entropy (80 K, Crystal) was 64.19 ± 0.25 J/K/mol, the molar entropy (85 K, Crystal) was 68.76 ± 0.27 J/K/mol and the molar entropy (90 K, Crystal) was 73.24 ± 0.41 J/K/mol. For the same compound, the molar entropy (95 K, Crystal) was 77.63 ± 0.42 J/K/mol, the molar entropy (100 K, Crystal) was 81.94 ± 0.42 J/K/mol and the molar entropy (110 K, Crystal) was 90.3 ± 0.44 J/K/mol. The molar entropy (120 K, Crystal) was 98.36 ± 0.45 J/K/mol, the molar entropy (130 K, Crystal) was 106.18 ± 0.46 J/K/mol and the molar entropy (140 K, Crystal) was 113.66 ± 0.47 J/K/mol. It also gave a molar entropy (150 K, Crystal) of 120.98 ± 0.48 J/K/mol, a molar entropy (160 K, Crystal) of 128.13 ± 0.49 J/K/mol and a molar entropy (170 K, Crystal) of 135.11 ± 0.5 J/K/mol. The molar entropy (180 K, Crystal) was 141.93 ± 0.51 J/K/mol, the molar entropy (190 K, Crystal) was 148.58 ± 0.52 J/K/mol and the molar entropy (190.09 K, Crystal) was 148.66 ± 0.52 J/K/mol. It also gave a molar entropy (190.09 K, Liquid) of 208.44 ± 0.61 J/K/mol, a molar entropy (200 K, Liquid) of 217.84 ± 0.63 J/K/mol and a molar entropy (210 K, Liquid) of 226.9 ± 0.64 J/K/mol. The molar entropy (220 K, Liquid) was 235.55 ± 0.65 J/K/mol, the molar entropy (230 K, Liquid) was 243.86 ± 0.67 J/K/mol and the molar entropy (240 K, Liquid) was 251.84 ± 0.68 J/K/mol. It also gave a molar entropy (250 K, Liquid) of 259.58 ± 0.69 J/K/mol, a molar entropy (260 K, Liquid) of 267.06 ± 0.7 J/K/mol and a molar entropy (270 K, Liquid) of 274.38 ± 0.71 J/K/mol. The molar entropy (280 K, Liquid) was 281.36 ± 0.72 J/K/mol, the molar entropy (290 K, Liquid) was 288.26 ± 0.73 J/K/mol and the molar entropy (298.15 K, Liquid) was 293.75 ± 0.74 J/K/mol. The molar entropy (300 K, Liquid) was 295 ± 0.74 J/K/mol, the molar entropy (310 K, Liquid) was 301.48 ± 0.75 J/K/mol and the “vapor or sublimation pressure” value (316.24 K, Liquid) was 10.8 ± 0.054 kPa. The molar entropy (320 K, Liquid) was 307.88 ± 0.76 J/K/mol, the “vapor or sublimation pressure” value (321.02 K, Liquid) was 13.43 ± 0.054 kPa and the “vapor or sublimation pressure” value (326.17 K, Liquid) was 16.83 ± 0.055 kPa. For the same compound, the molar entropy (330 K, Liquid) was 314.12 ± 0.77 J/K/mol, the “vapor or sublimation pressure” value (331.33 K, Liquid) was 20.88 ± 0.056 kPa and the “vapor or sublimation pressure” value (335.84 K, Liquid) was 25.07 ± 0.057 kPa. The molar entropy (340 K, Liquid) was 320.27 ± 0.78 J/K/mol, the “vapor or sublimation pressure” value (341.17 K, Liquid) was 30.91 ± 0.059 kPa and the “vapor or sublimation pressure” value (346.14 K, Liquid) was 37.26 ± 0.061 kPa. For the same compound, the molar entropy (350 K, Liquid) was 326.34 ± 0.79 J/K/mol, the “vapor or sublimation pressure” value (351.81 K, Liquid) was 45.83 ± 0.064 kPa and the “vapor or sublimation pressure” value (357.57 K, Liquid) was 56.12 ± 0.069 kPa. For the same compound, the molar entropy (360 K, Liquid) was 332.33 ± 0.8 J/K/mol, the “vapor or sublimation pressure” value (363.05 K, Liquid) was 67.49 ± 0.074 kPa and the “vapor or sublimation pressure” value (368.86 K, Liquid) was 81.57 ± 0.08 kPa. For the same compound, the molar entropy (370 K, Liquid) was 338.15 ± 0.81 J/K/mol, the “vapor or sublimation pressure” value (373.81 K, Liquid) was 95.31 ± 0.086 kPa and the “vapor or sublimation pressure” value (374.54 K, Liquid) was 97.44 ± 0.087 kPa. The “vapor or sublimation pressure” value (375.25 K, Liquid) was 99.6 ± 0.089 kPa and the Triple point temperature (Crystal, fractional melting) was 190.1 ± 0.1 K.
